Eleven compounds from US11786534B2 (TAIHO PHARMACEUTICAL CO., LTD., priority 2019, dated 2023) can be followed below.

Common to all, as to format: biochemical
For one test, the target named is T1, human EGFR (WT) (Homo sapiens, UniProt P00533).
T1 construct: purchased Carna Biosciences Inc., Japan
Put plainly: Inhibitory activity against EGFR (WT) kinase. To be noted: Test Example 1, Table 6; ATP 1.5 μM. On the procedure:
The compounds of the present invention were measured for their inhibitory activity nainst EGFR (WT) kinase activity.
The materials, measurement procedures and data analysis method used in this test. are substantially the same as those shown in the section “Measurement of inhibitory activity against EGFR (d746-750/T790M/C797S) kinase.” However, among the materials, the kinase protein used was a purified recombinant human EGFR (WT) purchased from Carna Biosciences Inc., Japan. In the measurement procedures, the final concentration of ATP was set to 1.5 μM. Finally, data analysis was conducted to determine the IC50 value (nM) of each compound against EGFR (WT).
In accordance with the same procedures as shown in 5) in Test Example 1, the compounds of the present invention were measured for their inhibitory activity against. EGFR (WT) kinase activity.

Test [1] has as its target T2, human EGFR (d746-750/C797S) (Homo sapiens, UniProt P00533, C797S/DEL746-750).
T2 construct: purchased SignalChem
Put plainly: Inhibitory activity against EGFR (d746-750/C797S) kinase. To be noted: Test Example 1, Table 4; ATP 14 μM, 60 minutes. The method, then: 3) Measurement of inhibitory activity against EGFR (d746-750/C797S) kinase
The compounds of the present invention were measured for their inhibitory activity against EGFR (d746-750/C797S) kinase activity.
The materials, measurement procedures and data analysis method used in this test are substantially the same as those shown in the section “Measurement of inhibitory activity aiainst EGFR (d746-750/T790M/C797S) kinase.” However, among the materials, the kinase protein used was a purified recombinant human EGFR (d746-750/C797S) protein purchased from SignalChem, while the kinase reaction buffer used was 13.5 mM Tris (pH 7.5) containing 2 mM dithiothreitol and 0.009% Tween-20. In the measurement procedures, the final concentration of ATP was set to 14 μM, the final concentration of maganesium chloride was set to 20 mM, the final concentration of manganese chloride was set to 12.5 mM, the incubation time for kinase reaction was set to 60 minutes, and the final concentration of EDTA used to stop the kinase reaction was set to 40 mM. Finally, data analysis was conducted to determine to IC50 value (nM) of each compound against EGFR (d746-750/C797S).
In accordance with the same procedures as shown in 3) in Test Example 1, the compounds of the present invention were measured for their inhibitory activity against EGFR (d746-750/C797S) kinase activity.

The target of test [2] is T3, human EGFR (d746-750/T790M/C797S) (Homo sapiens, UniProt P00533, C797S/DEL746-750/T790M).
T3 construct: made in house; host or cells: Sf9 insect cells, baculovirus
T3 sequence (P00533 with tags, fused parts or gaps DEL746-750/T790M/C797S): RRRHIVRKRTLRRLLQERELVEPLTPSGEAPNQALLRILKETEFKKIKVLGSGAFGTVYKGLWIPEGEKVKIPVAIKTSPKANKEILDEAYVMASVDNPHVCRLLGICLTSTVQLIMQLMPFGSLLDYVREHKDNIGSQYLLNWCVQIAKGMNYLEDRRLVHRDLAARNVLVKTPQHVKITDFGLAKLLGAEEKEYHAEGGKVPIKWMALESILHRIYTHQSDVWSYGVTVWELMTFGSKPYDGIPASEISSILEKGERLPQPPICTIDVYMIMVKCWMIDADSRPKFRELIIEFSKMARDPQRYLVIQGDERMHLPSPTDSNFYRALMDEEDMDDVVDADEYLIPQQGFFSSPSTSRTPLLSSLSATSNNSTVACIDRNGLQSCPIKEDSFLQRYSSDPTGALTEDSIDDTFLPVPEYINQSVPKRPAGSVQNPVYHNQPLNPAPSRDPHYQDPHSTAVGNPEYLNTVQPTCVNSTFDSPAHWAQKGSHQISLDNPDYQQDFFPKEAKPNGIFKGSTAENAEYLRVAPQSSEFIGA
Put plainly: Inhibitory activity against EGFR (d746-750/T790M/C797S) kinase. To be noted: Test Example 1, Table 2; ATP 6 μM, 25° C., 120 minutes. On the procedure:
1) Measurement of inhibitory activity against EGFR (d746-750/T790M/C797S) kinase
The compounds of the above examples and comparative examples were measured for their inhibitory activity against EGFR (d746-750/T790M/C797S) kinase activity. Among the materials required for measurement of this inhibitory activity, the kinase protein (SEQ ID NO: 1) used was prepared as follows: the cytoplasmic domain of human EGFR (d746-750/T790M/C797S) fused at the ammo terminal end with a glutathione-S-transferase (GST) tag was expressed M insect cells (Sf9) by the baculovirus expression system and then purified an a glutathione sepharose column. For use as a substrate peptide, a peptide biotinylated at the N-terminal end (biotin -EEPLYWSFPAKKK) was synthesized by reference to Perkin Elmer LabChip® series reagent FL-Peptide 22.
Procedures for measurement of the inhibitory activity are as follows. First, the compounds of the present invention were each dissolved in dimethyl sulfoxide (DMSO), and their serial dilutions were then prepared with DMSO. Secondly, each compound serial dilution (final concentration of DMSO during kinase reaction: 2.5%) or DMSO (final concentration: 2.5%) was mixed with a solution containing the substrate peptide (final concentration: 250 nM), magnesium chloride (final concentration: 10 mM), manganese chloride (final concentration: 10 mM) and ATP (final concentration: 6 μM) in a kinase reaction buffer (Carna Biosciences Inc., Japan), and the EGFR (d746-750/T790M/C797S) protein was further added thereto, followed by incubation at 25° C. for 120 minutes to cause kinase reaction. To the reaction solution, EDTA was added to give a final concentration of 24 mM to thereby stop the reaction, followed by addition of a phospholylated tyrosine detection solution containing europium-labeled anti-phosphorylated tyrosine antibody PT66 (Perkin Elmer) and SureLight APC-SA (Perkin Elmer). The reaction solution was allowed to stand at room temperature for 2 hours or longer. As a background, DMSO was used instead of each compound solution in .DMSO, and EDIA was added prior to the addition of the EGFR EGFR (d746-750/T790M/C797S) protein, followed by incubation at 25° C. for 120 minutes. The same detection solution was also added to this reaction solution, which was then allowed to stand for 2 hours or longer. Finally, all the test samples were measured with a PHERAstar FS reader (BMG LABTECH) for their fluorescence intensity at two wavelengths of 620 nm and 665 nm upon irradiation with an excitation light of 337 nm wavelength, and the ratio of fluorescence intensities at these two wavelengths was obtained as data for each compound.
Moreover, as control compounds, the above Comparative Example A (Example 3 in WO2013/118817) and Comparative Example B (Example 35 in WO2013/118817) known to have EGFR inhibitory activity were used.
In accordance with the same procedures as shown in 1) in Test Example 1, the compounds of the above examples were measured for their inhibitory activity against EGFR (d746-750/T790M/C797S) kinase activity.

Another test addresses T4, human EGFR (L858R/C797S) (Homo sapiens, UniProt P00533, C797S/L858R).
T4 construct: purchased SignalChem
Put plainly: Inhibitory activity against EGFR (L858R/C797S) kinase. To be noted: Test Example 1, Table 5; ATP 4 μM, 90 minutes. On the procedure:
4) Measurement of inhibitory activity against EGFR (L858R/C797S) kinase
The compounds of the present invention were measured for their inhibitory activity aeainst EGFR (L858R/C797S) kinase activity.
The materials, measurement procedures and data analysis method used in this test are stibstantially the same as those shown in the section “Measurement of inhibitory activity against EGFR (d746-750/C797S) kinase.” However, among the materials, the kinase protein used was a purified recombinant human EGFR (C797S/L858R) protein purchased from SignalChem. In the measurement procedures, the final concentration of ATP was set to 4 μM, and the incubation time for kinase reaction was set to 90 minutes. Finally, data analysis was conducted determine the IC50 value (nM) of each compound against EGFR (L858R/C797S).
In accordance with the same procedures as shown in 4) in Test Example 1, the compounds of the present invention were measured for their inhibitor activity against. EGFR (L858R/C797S) kinase activity.

T2 sequence (P00533 with tags, fused parts or gaps DEL746-750/C797S): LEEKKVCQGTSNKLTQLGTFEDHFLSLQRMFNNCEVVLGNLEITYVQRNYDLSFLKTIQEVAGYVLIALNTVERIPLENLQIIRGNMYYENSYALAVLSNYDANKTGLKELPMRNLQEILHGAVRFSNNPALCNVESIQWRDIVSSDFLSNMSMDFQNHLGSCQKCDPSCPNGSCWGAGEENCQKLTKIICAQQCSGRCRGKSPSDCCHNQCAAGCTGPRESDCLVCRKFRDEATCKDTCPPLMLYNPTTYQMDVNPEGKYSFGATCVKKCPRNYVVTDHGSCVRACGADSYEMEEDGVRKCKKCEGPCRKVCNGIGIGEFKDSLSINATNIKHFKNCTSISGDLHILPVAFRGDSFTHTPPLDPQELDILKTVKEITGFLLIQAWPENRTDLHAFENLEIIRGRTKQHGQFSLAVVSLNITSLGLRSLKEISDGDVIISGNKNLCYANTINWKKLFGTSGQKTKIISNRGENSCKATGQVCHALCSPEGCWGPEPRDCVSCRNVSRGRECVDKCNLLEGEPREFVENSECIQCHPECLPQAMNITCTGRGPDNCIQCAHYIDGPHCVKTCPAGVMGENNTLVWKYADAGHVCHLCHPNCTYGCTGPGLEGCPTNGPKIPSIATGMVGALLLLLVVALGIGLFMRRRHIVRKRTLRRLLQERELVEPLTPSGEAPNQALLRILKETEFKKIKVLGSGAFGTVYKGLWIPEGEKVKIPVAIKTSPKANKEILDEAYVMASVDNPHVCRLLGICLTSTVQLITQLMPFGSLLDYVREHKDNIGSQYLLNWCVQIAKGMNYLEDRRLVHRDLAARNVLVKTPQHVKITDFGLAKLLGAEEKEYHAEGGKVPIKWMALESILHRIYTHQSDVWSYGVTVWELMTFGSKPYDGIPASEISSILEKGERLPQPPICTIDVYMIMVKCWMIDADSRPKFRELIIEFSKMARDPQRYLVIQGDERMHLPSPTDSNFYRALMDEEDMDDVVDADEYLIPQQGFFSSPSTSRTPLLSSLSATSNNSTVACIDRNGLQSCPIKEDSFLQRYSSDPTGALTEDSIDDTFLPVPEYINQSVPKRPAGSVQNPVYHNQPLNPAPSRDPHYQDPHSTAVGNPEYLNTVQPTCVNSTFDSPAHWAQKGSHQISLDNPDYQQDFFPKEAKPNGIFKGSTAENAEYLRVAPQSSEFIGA
T1 sequence (P00533 25-1210): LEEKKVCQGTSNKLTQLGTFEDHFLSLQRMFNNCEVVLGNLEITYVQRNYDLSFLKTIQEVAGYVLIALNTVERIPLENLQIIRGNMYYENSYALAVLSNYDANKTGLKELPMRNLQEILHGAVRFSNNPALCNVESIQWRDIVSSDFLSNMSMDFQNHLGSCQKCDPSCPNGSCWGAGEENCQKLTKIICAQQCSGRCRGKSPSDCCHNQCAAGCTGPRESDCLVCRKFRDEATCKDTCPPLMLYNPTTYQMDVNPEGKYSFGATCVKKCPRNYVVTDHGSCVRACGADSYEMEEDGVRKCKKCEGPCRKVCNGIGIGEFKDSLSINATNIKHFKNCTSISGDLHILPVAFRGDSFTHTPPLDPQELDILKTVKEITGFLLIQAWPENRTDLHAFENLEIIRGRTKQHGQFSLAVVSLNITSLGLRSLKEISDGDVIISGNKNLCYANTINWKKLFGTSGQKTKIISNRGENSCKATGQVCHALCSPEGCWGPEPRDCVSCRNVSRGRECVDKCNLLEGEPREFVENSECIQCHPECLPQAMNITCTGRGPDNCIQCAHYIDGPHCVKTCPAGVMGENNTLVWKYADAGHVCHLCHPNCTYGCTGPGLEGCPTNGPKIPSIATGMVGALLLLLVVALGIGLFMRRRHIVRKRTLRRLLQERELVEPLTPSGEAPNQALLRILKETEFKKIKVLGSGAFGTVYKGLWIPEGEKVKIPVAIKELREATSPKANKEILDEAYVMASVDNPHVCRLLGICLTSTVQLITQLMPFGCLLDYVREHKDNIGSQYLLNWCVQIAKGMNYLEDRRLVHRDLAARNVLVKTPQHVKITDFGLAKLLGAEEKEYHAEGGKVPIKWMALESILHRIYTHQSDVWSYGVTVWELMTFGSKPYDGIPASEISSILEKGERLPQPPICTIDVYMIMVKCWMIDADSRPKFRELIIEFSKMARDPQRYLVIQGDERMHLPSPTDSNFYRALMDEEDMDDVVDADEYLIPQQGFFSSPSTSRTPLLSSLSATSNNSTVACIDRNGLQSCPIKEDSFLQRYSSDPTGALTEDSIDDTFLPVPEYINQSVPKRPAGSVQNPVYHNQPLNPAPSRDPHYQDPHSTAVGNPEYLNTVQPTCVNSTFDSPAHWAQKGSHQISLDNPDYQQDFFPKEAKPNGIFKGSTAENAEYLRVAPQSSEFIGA
T4 sequence (P00533 25-1210 C797S/L858R): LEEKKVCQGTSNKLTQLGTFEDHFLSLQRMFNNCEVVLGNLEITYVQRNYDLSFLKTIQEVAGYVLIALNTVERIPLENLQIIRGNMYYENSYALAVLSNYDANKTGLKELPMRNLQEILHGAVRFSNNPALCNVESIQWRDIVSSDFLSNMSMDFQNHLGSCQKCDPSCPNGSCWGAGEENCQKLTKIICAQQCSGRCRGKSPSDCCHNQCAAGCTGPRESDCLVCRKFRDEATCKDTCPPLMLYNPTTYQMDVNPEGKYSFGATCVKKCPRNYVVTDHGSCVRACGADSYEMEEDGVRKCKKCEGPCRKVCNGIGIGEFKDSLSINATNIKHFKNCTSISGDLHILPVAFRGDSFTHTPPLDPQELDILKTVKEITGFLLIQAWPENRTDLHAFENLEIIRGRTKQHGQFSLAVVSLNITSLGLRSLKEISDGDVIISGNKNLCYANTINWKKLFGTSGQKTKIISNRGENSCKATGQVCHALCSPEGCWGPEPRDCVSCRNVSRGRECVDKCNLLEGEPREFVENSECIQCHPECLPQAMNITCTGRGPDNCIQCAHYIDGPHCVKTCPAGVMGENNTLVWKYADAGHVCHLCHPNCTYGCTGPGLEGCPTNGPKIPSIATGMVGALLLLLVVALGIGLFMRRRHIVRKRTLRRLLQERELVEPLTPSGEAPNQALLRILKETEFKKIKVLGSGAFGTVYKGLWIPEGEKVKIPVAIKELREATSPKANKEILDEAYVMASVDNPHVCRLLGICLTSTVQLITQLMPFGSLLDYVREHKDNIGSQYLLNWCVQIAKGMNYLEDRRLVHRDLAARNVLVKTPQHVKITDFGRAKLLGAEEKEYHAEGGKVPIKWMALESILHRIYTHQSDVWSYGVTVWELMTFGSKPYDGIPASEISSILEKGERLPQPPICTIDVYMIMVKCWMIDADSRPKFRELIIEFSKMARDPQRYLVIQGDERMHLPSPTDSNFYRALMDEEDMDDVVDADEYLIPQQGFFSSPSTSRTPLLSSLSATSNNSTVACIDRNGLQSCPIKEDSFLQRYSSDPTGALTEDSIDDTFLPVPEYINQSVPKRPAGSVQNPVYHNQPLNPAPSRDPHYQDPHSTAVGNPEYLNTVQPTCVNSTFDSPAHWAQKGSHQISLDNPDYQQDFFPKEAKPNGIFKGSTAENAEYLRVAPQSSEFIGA

Consider `C#Cc1c(-c2cnc3ccccc3c2)c2c(N)ncnc2n1C12CCC(N3CCN(C)C(=O)C3)(CC1)C2` [Example 5, 4-(4-(4-Amino-6-ethynyl-5-(quinolin-3-yl)-7H-pyrrolo[2,3-d]pyrimidin-7-yl)bicyclo-[2.2.1]heptan-1-yl)-1-methylpiperazin-2-one], for which the IC50 against human EGFR (WT) amounted to 4 nM; in test [1], 1.2 nM; in test [2], 0.32 nM; against human EGFR (L858R/C797S), 2.8 nM.

In the case of `C#Cc1c(-c2cnc3ccccc3c2)c2c(N)ncnc2n1C12CCC(O)(CC1)CC2` [Example 7, 4-(4-Amino-6-ethynyl-5-(quinoiln-3-yl)-7H-pyrrolo[2,3-d]pyrimidin-7-yl)bicyclo-[2.2.2]octan-1-ol], the IC50 on human EGFR (WT) came to 2.5 nM; in test [1] it was 2.3 nM; in test [2], 0.8 nM; at human EGFR (L858R/C797S) it was 2.9 nM.

As to `C#Cc1c(-c2cnc3ccccc3c2)c2c(N)ncnc2n1C12CCC(NCc3cccnc3)(CC1)CC2` [Example 8, 6-Ethynyl-7-(4-((pyridin-3-ylmethyl)amino)bicyclo[2.2.2]octan-1-yl)-5-(quinolin-3-yl) -7H-pyrrolo[2,3-d]pyrimidine-4-amine], the IC50 against human EGFR (WT) was 3.2 nM; in test [1] it was 0.73 nM; in test [2] it was less than 0.3 nM; at human EGFR (L858R/C797S) it was 1.4 nM.

Regarding `C#Cc1c(-c2cnc3ccccc3c2)c2c(N)ncnc2n1C12CCC(NC(=O)n3cccn3)(CC1)C2` [Example 21, N-(4-(4-Amino-6-ethynyl-5-(quinolin-3-yl)-7H-pyrrolo[2,3-d]pyrimidin-7-yl)bicyclo-[2.2.1]heptan-1-yl)-1H-pyrazole-1-carboxamide], the IC50 was 1.7 nM at human EGFR (WT), 0.78 nM in test [1], less than 0.3 nM in test [2] and 0.98 nM at human EGFR (L858R/C797S).

Take `C#Cc1c(-c2cnc3ccccc3c2)c2c(N)ncnc2n1C12CCC(NC(=O)c3cnc(N(C)C)cn3)(CC1)C2` [Example 32, N-(4-(4-Amino-6-ethynyl-5-(quinolin-3-yl)-7H-pyrrolo[2,3-d]pyrimidin-7-yl)bicyclo-[2.2.1]heptan-1-yl)-5-(dimethylamino)pyrazine-2-carboxamide]: the half-maximal inhibitory concentration (IC50) is 1 nM on human EGFR (WT), 0.59 nM in test [1], less than 0.3 nM in test [2] and 0.78 nM against human EGFR (L858R/C797S).

`CC#Cc1c(-c2cnc3ccccc3c2)c2c(N)ncnc2n1C12CCC(NC(=O)c3ccnn3C)(CC1)C2` [Example 33, N-(4-(4-Amino-6-(propyn-1-yl)-5-(quinolin-3-yl)-7H-pyrrolo[2,3-d]pyrimidin-7-yl) -bicyclo[2.2.1]heptan-1-yl)-1-methyl-1H-pyrazole-5-carboxamide]: the concentration for half-maximal inhibition (IC50) at human EGFR (WT) is 1.9 nM; in test [1], 1.9 nM; in test [2] it was less than 0.3 nM; against human EGFR (L858R/C797S), 2.3 nM.

As to `C#Cc1c(-c2cnc3ccccc3c2)c2c(N)ncnc2n1C12CCC(CN(C)C)(CC1)C2` [Example 40, 7-(4-((Dimethylamino)methyl)bicyclo[2.2.1]heptan-1-yl)-6-ethynyl-5-(quinolin-3-yl) -7H-pyrrolo[2,3-d]pyrimidine-4-amine], the half-inhibitory concentration (IC50) against human EGFR (WT) is 5 nM; in test [1], 2.6 nM; in test [2], less than 0.3 nM; against human EGFR (L858R/C797S), 4 nM.

Regarding `C#Cc1c(-c2cnc3ccccc3c2)c2c(N)ncnc2n1C12CCC(CNCCF)(CC1)C2` [Example 54, 6-Ethynyl-7-(4-(((2-fluoroethyl)amino)methyl)bicyclo[2.2.1]heptan-1-yl)-5-(quinolin-3-yl)-7H-pyrrolo[2,3-d]pyrimidine-4-amine], the IC50 on human EGFR (WT) is 6.3 nM; in test [1] it was 1.5 nM; in test [2] it was less than 0.3 nM; on human EGFR (L858R/C797S) it was 2.8 nM.

Regarding `C#Cc1c(-c2cnc3ccccc3c2)c2c(N)ncnc2n1C12CCC(NC(=O)CN(C)C)(CC1)CC2` [Example 55], the IC50 on human EGFR (WT) is 1.2 nM; in test [1], 0.86 nM; in test [2], less than 0.3 nM; at human EGFR (L858R/C797S), 1.2 nM.

Take `C#Cc1c(-c2cnc3ccccc3c2)c2c(N)ncnc2n1C12CCC(NC(=S)N3CC4(CN(C)C4)C3)(CC1)CC2` [Example 56]: the IC50 on human EGFR (WT) was 0.94 nM; in test [1] it was 0.84 nM; in test [2], less than 0.3 nM; against human EGFR (L858R/C797S), 0.9 nM.

As to `C#Cc1c(-c2cnc3ccccc3c2)c2c(N)ncnc2n1C12CCC(N(C)C(=O)c3cnc(C)cn3)(CC1)C2` [Example 57], the concentration for half-maximal inhibition (IC50) against human EGFR (WT) is 5.9 nM; in test [1] it was 2.5 nM; in test [2] it was less than 0.3 nM; against human EGFR (L858R/C797S) it was 4.4 nM.

As a reminder, the IC50 is the concentration that gives 50% inhibition. Lower therefore signals inhibition by little substance.
